In patent publication US11053239B2, “Compounds as BLC-2-selective apoptosis-inducing agents” (Fochon Pharmaceuticals, Ltd., priority 2017, dated 2021):
Where two headings read alike, the source gives them in different places.

Experiments:
DOHH2 cells = assay: Cell proliferation assay (MTS), DOHH2 cells; type: cell-based; conditions: DOHH2 (DSMZ ACC 47) cell proliferation, 5000 cells/well, 120 h, MTS, mechanism-based readout of Bcl-2 inhibition, read-out: DOHH2 IC50
Text: (§1) MTS testing kit was purchased from Promega. The RPMI-1640, Fetal bovine serum and Penicillin-Streptomycin were purchased from Gibco. Dimethyl sulfoxide (DMSO) was purchased from Sigma.
(§2) To investigate whether a compound is able to inhibit the activity of Bcl-2 in cells, a mechanism-based assay using DOHH2 (DSMZ No.® ACC 47) and RS4; 11 (ATCC® CRL-1873™) cell was developed. In this assay, inhibition of Bcl-2 was detected by the inhibition of DOHH2 and RS4; 11 cells proliferation. DOHH2 and RS4; 11 cells were cultured in culture flasks to 40-80% confluence in RPMI-1640 plus 10% fetal bovine serum. Cells were collected and plated onto 96-well plates at desired cell density (DOHH2: 5000 cells/well; RS4; 11: 30000 cells/well). Plates were incubated overnight at 37° C., with 5% CO2 to adhere. Compounds were added to the plates, and the final compound concentrations were 10000, 3333, 1111, […], 124, 41, 14, 4.6 and 1.5 nM. Plates plated with DOHH2 or RS4; 11 cells were placed at 37° C., with 5% CO2 for 120 h (DOHH2) or 72 h (RS4; 11) respectively. 20 μl MTS/100 μl medium mixture solution were added to each well and incubate the plates for exactly 2 hours. The reaction was stopped by adding 25 μl 10% SDS per well. Measure absorbance at 490 nm and 650 nm (reference wavelength). ICso was calculated using GraphPad Prism 5.0.

RS4; 11 cells = assay: Cell proliferation assay (MTS), RS4; 11 cells; type: cell-based; conditions: RS4, 11 (ATCC CRL-1873) cell proliferation, 30000 cells/well, 72 h, MTS, mechanism-based readout of Bcl-2 inhibition, read-out: RS4, 11 IC50
Text: as §1, §2

Row | Structure (SMILES) | IC50 (DOHH2 cells; Homo sapiens, DOHH-2, 120 h) [nM] | IC50 (RS4; 11 cells; Homo sapiens, RS4-11, 72 h) [nM] | IC50 (DOHH2 cells) [nM] | IC50 (RS4; 11 cells) [nM]
1 | CC1(C)CCC(CN2CCN(c3ccc(C(=O)NS(=O)(=O)c4ccc(NCC5CCC(N=S6(=O)CCCC6)CC5)c(S(=O)(=O)C(F)(F)F)c4)c(Oc4cnc5[nH]ccc5c4)c3)CC2)=C(c2ccc(Cl)cc2)C1 (stereo not drawn) [Example 64, 2-((1H-pyrrolo[2,3-b]pyridin-5-yl)oxy)-4-(4-((4′-chloro-5,5-dimethyl-3,4,5,6-tetrahydro-[1,1′-biphenyl]-2-yl)methyl)piperazin-1-yl)-N-((4-(((4-((1-oxidotetrahydro-1λ^6-thiophen-1-ylidene)amino)cyclohexyl)methyl)amino)-3-((trifluoromethyl)sulfonyl)phenyl)sulfonyl)benzamide] | 320 | 216 | – | –
2 | C[C@@H](CCN1CCS(=O)(=NC#N)CC1)Nc1ccc(S(=O)(=O)NC(=O)c2ccc(N3CCN(CC4=C(c5ccc(Cl)cc5)CC(C)(C)CC4)CC3)cc2Oc2cnc3[nH]ccc3c2)cc1[N+](=O)[O-] [Example 95, (S)-2-((1H-pyrrolo[2,3-b]pyridin-5-yl)oxy)-4-(4-((4′-chloro-5,5-dimethyl-3,4,5,6-tetrahydro-[1,1′-biphenyl]-2-yl)methyl)piperazin-1-yl)-N-((4-((4-(1-(cyanoimino)-1-oxido-1λ^6-thiomorpholino)butan-2-yl)amino)-3-nitrophenyl)sulfonyl) benzamide] | 71 | 22 | – | –
3 | C[C@@H](CN1CCP(C)(=O)CC1)Nc1ccc(S(=O)(=O)NC(=O)c2ccc(N3CCN(CC4=C(c5ccc(Cl)cc5)CC(C)(C)CC4)CC3)cc2Oc2cnc3[nH]ccc3c2)cc1S(=O)(=O)C(F)(F)F [Example 49, (S)-2-((1H-pyrrolo[2,3-b]pyridin-5-yl)oxy)-4-(4-((4′-chloro-5,5-dimethyl-3,4,5,6-tetrahydro-[1,1′-biphenyl]-2-yl)methyl)piperazin-1-yl)-N-((4-((1-(4-methyl-4-oxido-1,4-azaphosphinan-1-yl)propan-2-yl)amino)-3-((trifluoromethyl)sulfonyl)phenyl)sulfonyl)benzamide] | 107 | 54 | – | –
4 | CCN=S1(=O)CCN(CC[C@H](C)Nc2ccc(S(=O)(=O)NC(=O)c3ccc(N4CCN(CC5=C(c6ccc(Cl)cc6)CC(C)(C)CC5)CC4)cc3Oc3cnc4[nH]ccc4c3)cc2S(=O)(=O)C(F)(F)F)CC1 [Example 87, (S)-2-((1H-pyrrolo[2,3-b]pyridin-5-yl)oxy)-4-(4-((4′-chloro-5,5-dimethyl-3,4,5,6-tetrahydro-[1,1′-biphenyl]-2-yl)methyl)piperazin-1-yl)-N-((4-((4-(1-(ethylimino)-1-oxido-1λ^6-thiomorpholino)butan-2-yl)amino)-3-((trifluoromethyl)sulfonyl)phenyl)sulfonyl) benzamide] | – | – | 266 | 145
5 | CCOC(=O)N=S1(=O)CCN(C[C@H](C)Nc2ccc(S(=O)(=O)NC(=O)c3ccc(N4CCN(CC5=C(c6ccc(Cl)cc6)CC(C)(C)CC5)CC4)cc3Oc3cnc4[nH]ccc4c3)cc2[N+](=O)[O-])CC1 [Example 72, ethyl (S)-(4-(2-((4-(N-(2-((1H-pyrrolo[2,3-b]pyridin-5-yl)oxy)-4-(4-((4′-chloro-5,5-dimethyl-3,4,5,6-tetrahydro-[1,1′-biphenyl]-2-yl)methyl)piperazin-1-yl)benzoyl)sulfamoyl)-2-nitrophenyl)amino)propyl)-1-oxido-1λ^6-thiomorpholin-1-ylidene) carbamate] | 119 | 68 | – | –
6 | CCN=S1(=O)CCN(C[C@H](C)Nc2ccc(S(=O)(=O)NC(=O)c3ccc(N4CCN(CC5=C(c6ccc(Cl)cc6)CC(C)(C)CC5)CC4)cc3Oc3cnc4[nH]ccc4c3)cc2[N+](=O)[O-])CC1 [Example 38, (S)-((1H-pyrrolo[2,3-b]pyridin-5-yl)oxy)-4-(4-((4′-chloro-5,5-dimethyl-3,4,5,6-tetrahydro-[1,1′-biphenyl]-2-yl)methyl)piperazin-1-yl)-N-((4-((1-(1-(ethylimino)-1-oxido-1λ^6-thiomorpholino)propan-2-yl)amino)-3-nitrophenyl)sulfonyl) benzamide] | 108 | 28 | – | –
7 | CC1(C)CCC(CN2CCN(c3ccc(C(=O)NS(=O)(=O)c4cnc(NCC5CCC(N=S(C)(C)=O)CC5)c([N+](=O)[O-])c4)c(Oc4cnc5[nH]ccc5c4)c3)CC2)=C(c2ccc(Cl)cc2)C1 (stereo not drawn) [Example 52, 2-((1H-pyrrolo[2,3-b]pyridin-5-yl)oxy)-4-(4-((4′-chloro-5,5-dimethyl-3,4,5,6-tetrahydro-[1,1′-biphenyl]-2-yl)methyl)piperazin-1-yl)-N-((6-(((4-((dimethyl(oxo)-λ^6-sulfanylidene)amino)cyclohexyl)methyl)amino)-5-nitropyridin-3-yl)sulfonyl) benzamide] | 29 | 2 | – | –
8 | COC(=O)N=S1(=O)CCN(C[C@H](C)Nc2ccc(S(=O)(=O)NC(=O)c3ccc(N4CCN(CC5=C(c6ccc(Cl)cc6)CC(C)(C)CC5)CC4)cc3Oc3cnc4[nH]ccc4c3)cc2[N+](=O)[O-])CC1 [Example 44, methyl (S)-(4-(2-((4-(N-(2-((1H-pyrrolo[2,3-b]pyridin-5-yl)oxy)-4-(4-((4′-chloro-5,5-dimethyl-3,4,5,6-tetrahydro-[1,1′-biphenyl]-2-yl)methyl)piperazin-1-yl)benzoyl)sulfamoyl)-2-nitrophenyl)amino)propyl)-1-oxido-1λ^6-thiomorpholin-1-ylidene) carbamate] | 20 | 21 | – | –
9 | CC(C)OC(=O)N=S1(=O)CCN(CC[C@H](C)Nc2ccc(S(=O)(=O)NC(=O)c3ccc(N4CCN(CC5=C(c6ccc(Cl)cc6)CC(C)(C)CC5)CC4)cc3Oc3cnc4[nH]ccc4c3)cc2[N+](=O)[O-])CC1 [Example 86, isopropyl (S)-(4-(3-((4-(N-(2-((1H-pyrrolo[2,3-b]pyridin-5-yl)oxy)-4-(4-((4′-chloro-5,5-dimethyl-3,4,5,6-tetrahydro-[1,1′-biphenyl]-2-yl)methyl)piperazin-1-yl)benzoyl)sulfamoyl)-2-nitrophenyl)amino)butyl)-1-oxido-1λ^6-thiomorpholin-1-ylidene) carbamate] | 35 | 23 | – | –
10 | CC1(C)CCC(CN2CCN(c3ccc(C(=O)NS(=O)(=O)c4ccc(NCC(CF)N5CCP(C)(=O)CC5)c([N+](=O)[O-])c4)c(Oc4cnc5[nH]ccc5c4)c3)CC2)=C(c2ccc(Cl)cc2)C1 (stereo not drawn) [Example 13, 2-((1H-pyrrolo[2,3-b]pyridin-5-yl)oxy)-4-(4-((4′-chloro-5,5-dimethyl-3,4,5,6-tetrahydro-[1,1′-biphenyl]-2-yl)methyl)piperazin-1-yl)-N-((4-((3-fluoro-2-(4-methyl-4-oxido-1,4-azaphosphinan-1-yl)propyl)amino)-3-nitrophenyl)sulfonyl)benzamide] | 615 | 397 | – | –
11 | CC(=O)N=S1(=O)CCC(CNc2ccc(S(=O)(=O)NC(=O)c3ccc(N4CCN(CC5=C(c6ccc(Cl)cc6)CC(C)(C)CC5)CC4)cc3Oc3cnc4[nH]ccc4c3)cc2[N+](=O)[O-])CC1 (stereo not drawn) [Example 31, 2-((1H-pyrrolo[2,3-b]pyridin-5-yl)oxy)-N-((4-(((1-(acetylimino)-1-oxidohexahydro-1λ^6-thiopyran-4-yl)methyl)amino)-3-nitrophenyl)sulfonyl)-4-(4-((4′-chloro-5,5-dimethyl-3,4,5,6-tetrahydro-[1,1′-biphenyl]-2-yl)methyl)piperazin-1-yl)benzamide] | – | 135 | – | –
